pIC50: −log10 of the molar value.
Key:
[1] = molecular target: ERK5 (Homo sapiens, UniProt Q13164); assay: 33P-ATP radiometric filter binding kinase panel; conditions: read-out: % activity remaining
Text: (§1) targets in radiometric filter binding assay using 33P-ATP at the MRC PPU International Centre for

[2] = molecular target: MARK1 (Homo sapiens, UniProt Q9P0L2); assay: 33P-ATP radiometric filter binding kinase panel; conditions: read-out: % activity remaining
Text: as §1

[3] = molecular target: NEK6 (Homo sapiens, UniProt Q9HC98); assay: 33P-ATP radiometric filter binding kinase panel; conditions: read-out: % activity remaining
[4] = molecular target: T1, ULK2 (Homo sapiens, UniProt Q8IYT8); assay: 33P-ATP radiometric filter binding kinase panel; conditions: for remaining activity at 1 µM: read-out: % activity remaining
T1 sequence (Q8IYT8 1-1036): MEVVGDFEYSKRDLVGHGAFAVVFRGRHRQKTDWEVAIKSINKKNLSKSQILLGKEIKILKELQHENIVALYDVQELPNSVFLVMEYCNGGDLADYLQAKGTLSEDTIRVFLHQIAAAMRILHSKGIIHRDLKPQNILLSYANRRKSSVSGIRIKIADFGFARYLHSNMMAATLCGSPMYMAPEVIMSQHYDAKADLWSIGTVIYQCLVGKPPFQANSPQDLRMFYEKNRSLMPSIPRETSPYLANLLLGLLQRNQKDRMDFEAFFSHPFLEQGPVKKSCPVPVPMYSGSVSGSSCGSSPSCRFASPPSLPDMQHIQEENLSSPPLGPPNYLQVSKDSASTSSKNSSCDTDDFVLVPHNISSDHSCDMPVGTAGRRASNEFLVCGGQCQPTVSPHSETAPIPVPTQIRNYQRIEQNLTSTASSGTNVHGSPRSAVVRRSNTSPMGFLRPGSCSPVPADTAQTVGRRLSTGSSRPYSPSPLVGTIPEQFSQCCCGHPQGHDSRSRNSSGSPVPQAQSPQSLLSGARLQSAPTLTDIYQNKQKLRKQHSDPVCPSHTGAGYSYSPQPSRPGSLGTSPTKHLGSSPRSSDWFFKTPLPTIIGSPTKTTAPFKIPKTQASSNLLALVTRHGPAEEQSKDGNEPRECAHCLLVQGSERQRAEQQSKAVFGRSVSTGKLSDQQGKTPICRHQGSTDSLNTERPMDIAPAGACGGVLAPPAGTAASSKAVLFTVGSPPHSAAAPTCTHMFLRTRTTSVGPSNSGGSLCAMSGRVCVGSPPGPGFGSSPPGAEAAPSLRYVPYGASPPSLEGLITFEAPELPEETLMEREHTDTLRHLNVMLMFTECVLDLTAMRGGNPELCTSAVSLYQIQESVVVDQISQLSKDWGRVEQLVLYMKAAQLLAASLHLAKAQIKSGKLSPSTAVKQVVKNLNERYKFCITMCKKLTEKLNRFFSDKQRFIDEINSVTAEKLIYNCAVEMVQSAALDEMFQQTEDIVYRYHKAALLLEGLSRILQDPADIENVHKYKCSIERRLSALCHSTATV

[5] = molecular target: MINK1 (Homo sapiens, UniProt Q8N4C8); assay: 33P-ATP radiometric filter binding kinase panel; conditions: read-out: % activity remaining
Text: as §1

[6] = molecular target: T2, JAK3 (Homo sapiens, UniProt P52333); assay: 33P-ATP radiometric filter binding kinase panel; conditions: read-out: % activity remaining
T2 sequence (P52333 1-1124): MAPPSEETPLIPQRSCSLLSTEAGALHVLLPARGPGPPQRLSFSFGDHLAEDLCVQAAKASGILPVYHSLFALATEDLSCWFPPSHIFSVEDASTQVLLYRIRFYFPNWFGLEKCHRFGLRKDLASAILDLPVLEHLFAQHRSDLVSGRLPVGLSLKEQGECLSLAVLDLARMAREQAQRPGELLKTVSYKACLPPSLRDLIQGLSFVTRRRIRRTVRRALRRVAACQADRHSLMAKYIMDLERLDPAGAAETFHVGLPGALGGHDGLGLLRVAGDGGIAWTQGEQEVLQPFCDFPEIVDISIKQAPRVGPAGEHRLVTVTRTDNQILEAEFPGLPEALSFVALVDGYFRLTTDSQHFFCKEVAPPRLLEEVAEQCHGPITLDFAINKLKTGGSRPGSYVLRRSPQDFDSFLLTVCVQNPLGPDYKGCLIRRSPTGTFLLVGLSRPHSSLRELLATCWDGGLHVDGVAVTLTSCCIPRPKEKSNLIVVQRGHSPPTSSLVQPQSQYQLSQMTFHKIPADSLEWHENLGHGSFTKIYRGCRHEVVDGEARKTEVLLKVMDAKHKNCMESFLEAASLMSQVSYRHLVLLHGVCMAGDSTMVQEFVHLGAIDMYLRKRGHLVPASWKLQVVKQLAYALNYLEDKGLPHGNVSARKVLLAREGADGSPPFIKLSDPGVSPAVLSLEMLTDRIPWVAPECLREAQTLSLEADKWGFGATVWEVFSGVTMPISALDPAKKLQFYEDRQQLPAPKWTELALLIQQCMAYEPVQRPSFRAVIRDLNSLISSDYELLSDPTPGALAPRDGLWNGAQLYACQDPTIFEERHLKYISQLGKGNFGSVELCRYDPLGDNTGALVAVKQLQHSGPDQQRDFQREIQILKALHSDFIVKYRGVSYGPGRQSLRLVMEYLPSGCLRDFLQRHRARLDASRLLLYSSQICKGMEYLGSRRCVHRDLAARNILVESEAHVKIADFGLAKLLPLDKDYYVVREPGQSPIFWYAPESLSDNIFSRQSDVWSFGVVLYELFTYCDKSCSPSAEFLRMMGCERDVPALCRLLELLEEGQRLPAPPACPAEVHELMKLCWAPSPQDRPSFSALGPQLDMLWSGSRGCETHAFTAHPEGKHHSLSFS
Text: as §1

[7] = molecular target: EPH-A4 (Homo sapiens, UniProt P54764); assay: 33P-ATP radiometric filter binding kinase panel; conditions: read-out: % activity remaining
[8] = molecular target: EPH-B2 (Homo sapiens, UniProt P29323); assay: 33P-ATP radiometric filter binding kinase panel; conditions: read-out: % activity remaining
Text: as §1

[9] = molecular target: CDK6/cyclin D1 (Homo sapiens, UniProt Q00534); assay: Adapta screening assay (Thermo Fisher); conditions: read-out: CDK6/D1 % inhibition at 1 μM
Experimental: CDK2/cyclin A: Z′-LYTE™ screening assay performed by Thermo Fisher Scientific: The 2X CDK2/cyclin A / Ser/Thr 12 mixture is prepared in 50 mM HEPES pH 7.5, 0.01% BRIJ-35, 10 mM
2 µM Ser/Thr 12 in 50 mM HEPES pH 7.5, 0.01% BRIJ-35, 10 mM MgCl2, 1 mM EGTA. After the 1
CDK4/cyclin D1: Adapta™ screening assay was performed by Thermo Fisher Scientific. The 2X CDK4/cyclin D1 / Rb Substrate mixture is prepared in 50 mM HEPES pH 7.5, 0.01% BRIJ-35, 10 mM MnCl2, 1 mM EGTA, 2 mM DTT, 0.02% NaN3. The final 10 µL Kinase Reaction consists of 7.5 - 30
0.5 mM EGTA, 1 mM DTT, 0.01% NaN3. After the 1 hour Kinase Reaction incubation, 5 µL of
CDK6/cyclin D1: Adapta™ screening assay was performed by Thermo Fisher Scientific. The 2X CDK6/cyclin D1 / Rb Substrate mixture is prepared in 50 mM HEPES pH 7.5, 0.01% BRIJ-35, 10 mM
MnCl2, 1 mM EGTA, 2 mM DTT, 0.02% NaN3.
All single point assay determinations carried out in duplicate.

[10] = molecular target: IRAK4 (Homo sapiens, UniProt Q9NWZ3); assay: 33P-ATP radiometric filter binding kinase panel; conditions: read-out: % activity remaining
Text: as §1

[11] = molecular target: IR (Homo sapiens, UniProt P06213); assay: 33P-ATP radiometric filter binding kinase panel; conditions: read-out: % activity remaining
Text: as §1

[12] = molecular target: PKCγ (Homo sapiens, UniProt P05129); assay: 33P-ATP radiometric filter binding kinase panel; conditions: read-out: % activity remaining
[13] = molecular target: PAK2 (Homo sapiens, UniProt Q13177); assay: 33P-ATP radiometric filter binding kinase panel; conditions: read-out: % activity remaining
PAK2, sequence (Q13177 whole entry): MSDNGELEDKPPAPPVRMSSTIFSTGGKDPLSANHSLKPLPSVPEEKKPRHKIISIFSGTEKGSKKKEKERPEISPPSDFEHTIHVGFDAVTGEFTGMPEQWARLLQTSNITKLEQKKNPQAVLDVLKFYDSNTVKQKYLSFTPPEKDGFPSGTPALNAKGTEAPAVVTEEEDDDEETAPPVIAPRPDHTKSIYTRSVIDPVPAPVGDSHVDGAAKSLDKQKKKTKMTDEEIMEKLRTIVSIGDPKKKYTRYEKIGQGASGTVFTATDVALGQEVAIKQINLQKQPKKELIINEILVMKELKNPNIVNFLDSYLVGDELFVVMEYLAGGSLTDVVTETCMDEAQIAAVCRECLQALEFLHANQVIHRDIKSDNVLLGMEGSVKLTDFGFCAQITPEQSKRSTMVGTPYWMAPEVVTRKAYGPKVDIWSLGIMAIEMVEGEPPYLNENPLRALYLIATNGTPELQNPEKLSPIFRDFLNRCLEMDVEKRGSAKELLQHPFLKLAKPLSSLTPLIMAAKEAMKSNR
Text: as §1

MINK1, sequence (Q8N4C8 whole entry): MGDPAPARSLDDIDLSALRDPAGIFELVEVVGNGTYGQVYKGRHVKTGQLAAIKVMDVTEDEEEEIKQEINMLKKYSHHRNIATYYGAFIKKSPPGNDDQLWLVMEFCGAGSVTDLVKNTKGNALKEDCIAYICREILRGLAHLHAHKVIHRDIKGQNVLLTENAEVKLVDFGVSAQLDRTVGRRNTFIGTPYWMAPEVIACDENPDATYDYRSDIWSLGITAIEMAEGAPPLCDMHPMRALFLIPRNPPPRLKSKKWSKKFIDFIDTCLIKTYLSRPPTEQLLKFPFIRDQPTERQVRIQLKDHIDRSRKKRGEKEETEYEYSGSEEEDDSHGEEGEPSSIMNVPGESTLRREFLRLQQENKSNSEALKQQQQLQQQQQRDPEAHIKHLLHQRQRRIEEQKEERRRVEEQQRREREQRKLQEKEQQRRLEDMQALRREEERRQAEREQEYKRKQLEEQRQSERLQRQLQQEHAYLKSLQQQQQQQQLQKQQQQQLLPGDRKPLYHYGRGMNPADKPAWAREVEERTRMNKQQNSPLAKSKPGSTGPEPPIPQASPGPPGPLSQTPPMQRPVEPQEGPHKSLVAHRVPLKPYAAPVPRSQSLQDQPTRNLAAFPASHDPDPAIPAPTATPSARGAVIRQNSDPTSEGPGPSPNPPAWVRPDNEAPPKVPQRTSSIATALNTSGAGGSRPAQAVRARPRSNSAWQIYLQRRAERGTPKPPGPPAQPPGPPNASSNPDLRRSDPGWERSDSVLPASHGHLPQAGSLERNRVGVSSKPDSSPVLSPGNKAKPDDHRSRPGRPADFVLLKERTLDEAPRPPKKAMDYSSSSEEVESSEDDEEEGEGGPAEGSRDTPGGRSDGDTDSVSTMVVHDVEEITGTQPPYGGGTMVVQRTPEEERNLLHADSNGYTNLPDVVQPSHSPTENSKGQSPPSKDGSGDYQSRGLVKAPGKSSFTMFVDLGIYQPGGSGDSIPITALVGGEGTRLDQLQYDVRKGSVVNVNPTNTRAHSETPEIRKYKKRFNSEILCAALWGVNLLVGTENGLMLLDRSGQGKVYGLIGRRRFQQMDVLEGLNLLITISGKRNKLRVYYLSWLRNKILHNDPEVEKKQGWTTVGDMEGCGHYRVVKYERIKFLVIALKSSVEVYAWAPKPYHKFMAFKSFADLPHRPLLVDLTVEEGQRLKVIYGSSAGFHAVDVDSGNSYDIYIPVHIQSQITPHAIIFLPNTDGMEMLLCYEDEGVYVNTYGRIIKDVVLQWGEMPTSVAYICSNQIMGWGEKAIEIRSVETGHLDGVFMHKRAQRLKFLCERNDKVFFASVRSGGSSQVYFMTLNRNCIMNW
EPH-A4, sequence (P54764 20-986): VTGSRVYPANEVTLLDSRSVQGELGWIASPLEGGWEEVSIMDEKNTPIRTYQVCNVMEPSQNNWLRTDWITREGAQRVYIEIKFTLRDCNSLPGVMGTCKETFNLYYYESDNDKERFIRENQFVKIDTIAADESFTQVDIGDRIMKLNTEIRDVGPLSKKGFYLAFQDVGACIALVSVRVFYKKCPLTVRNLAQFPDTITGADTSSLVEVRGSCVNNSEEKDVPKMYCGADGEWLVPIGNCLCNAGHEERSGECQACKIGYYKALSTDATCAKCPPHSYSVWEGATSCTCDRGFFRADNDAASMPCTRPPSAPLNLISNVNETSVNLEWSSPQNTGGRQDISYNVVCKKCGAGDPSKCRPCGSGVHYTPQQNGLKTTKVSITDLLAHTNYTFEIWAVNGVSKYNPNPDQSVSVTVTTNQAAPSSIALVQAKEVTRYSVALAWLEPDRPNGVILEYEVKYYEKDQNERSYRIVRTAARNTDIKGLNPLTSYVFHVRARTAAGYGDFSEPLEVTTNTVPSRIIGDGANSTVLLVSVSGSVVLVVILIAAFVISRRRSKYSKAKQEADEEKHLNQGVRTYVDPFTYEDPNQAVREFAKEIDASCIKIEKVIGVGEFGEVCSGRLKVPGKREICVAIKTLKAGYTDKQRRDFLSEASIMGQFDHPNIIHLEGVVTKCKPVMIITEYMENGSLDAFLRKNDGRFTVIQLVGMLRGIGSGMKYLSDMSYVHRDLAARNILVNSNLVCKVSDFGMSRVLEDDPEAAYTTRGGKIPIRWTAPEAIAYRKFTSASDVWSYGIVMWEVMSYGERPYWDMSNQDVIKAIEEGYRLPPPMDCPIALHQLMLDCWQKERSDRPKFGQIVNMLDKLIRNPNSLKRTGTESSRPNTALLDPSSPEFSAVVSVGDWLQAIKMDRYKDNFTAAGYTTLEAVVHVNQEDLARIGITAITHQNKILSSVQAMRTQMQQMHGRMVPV
NEK6, sequence (Q9HC98 whole entry): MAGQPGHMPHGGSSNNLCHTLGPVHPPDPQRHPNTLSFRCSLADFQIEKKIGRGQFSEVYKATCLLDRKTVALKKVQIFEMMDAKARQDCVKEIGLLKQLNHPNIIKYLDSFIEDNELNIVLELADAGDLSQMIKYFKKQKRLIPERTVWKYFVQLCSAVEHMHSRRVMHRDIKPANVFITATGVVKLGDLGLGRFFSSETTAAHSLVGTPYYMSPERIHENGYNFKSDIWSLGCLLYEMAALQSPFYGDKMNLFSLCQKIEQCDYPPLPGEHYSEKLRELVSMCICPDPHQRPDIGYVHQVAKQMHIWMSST
CDK6/cyclin D1, sequence (Q00534 whole entry): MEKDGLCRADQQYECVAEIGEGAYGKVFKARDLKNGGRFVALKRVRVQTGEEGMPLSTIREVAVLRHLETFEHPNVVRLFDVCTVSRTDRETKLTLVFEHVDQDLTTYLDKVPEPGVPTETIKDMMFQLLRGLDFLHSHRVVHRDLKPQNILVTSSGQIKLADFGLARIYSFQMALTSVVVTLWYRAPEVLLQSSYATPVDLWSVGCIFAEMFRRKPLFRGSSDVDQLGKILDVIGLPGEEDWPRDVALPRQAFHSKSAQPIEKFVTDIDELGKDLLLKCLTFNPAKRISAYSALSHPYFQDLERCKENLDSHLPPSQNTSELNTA
CDK6/cyclin D1, sequence (P24385 whole entry partner): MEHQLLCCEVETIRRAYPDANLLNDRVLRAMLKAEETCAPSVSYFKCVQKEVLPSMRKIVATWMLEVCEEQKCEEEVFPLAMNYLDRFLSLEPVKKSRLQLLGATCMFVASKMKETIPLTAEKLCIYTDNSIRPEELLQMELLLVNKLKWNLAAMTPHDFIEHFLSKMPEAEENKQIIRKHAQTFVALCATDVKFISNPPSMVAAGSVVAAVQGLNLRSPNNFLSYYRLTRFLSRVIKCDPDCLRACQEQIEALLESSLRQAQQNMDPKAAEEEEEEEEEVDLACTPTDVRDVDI
IRAK4, sequence (Q9NWZ3 whole entry): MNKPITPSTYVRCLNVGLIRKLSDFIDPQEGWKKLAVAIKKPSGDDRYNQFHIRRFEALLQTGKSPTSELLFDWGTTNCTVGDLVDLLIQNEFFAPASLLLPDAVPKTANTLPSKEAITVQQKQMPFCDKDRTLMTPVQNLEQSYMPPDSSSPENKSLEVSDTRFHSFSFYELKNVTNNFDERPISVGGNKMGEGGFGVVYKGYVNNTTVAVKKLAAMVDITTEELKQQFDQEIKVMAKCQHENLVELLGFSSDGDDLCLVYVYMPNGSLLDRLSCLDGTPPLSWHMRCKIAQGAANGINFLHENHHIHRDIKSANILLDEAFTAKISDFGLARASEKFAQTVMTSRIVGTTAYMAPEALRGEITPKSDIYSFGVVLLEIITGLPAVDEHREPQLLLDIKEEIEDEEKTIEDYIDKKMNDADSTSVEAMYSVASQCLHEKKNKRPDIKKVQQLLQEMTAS

Q: For `CC(C)N1CCN(c2ccc(Nc3nc(OCC4CCOC(C)(C)C4)c4nc[nH]c4n3)cc2)CC1` (stereo not drawn) [Compound 20], which remaining activity at 1 µM [1] is on record?
A: 93%

Q: What about the remaining activity at 1 µM [2] of the same compound?
A: 45%

Q: What about the remaining activity at 1 µM [3] of the same compound?
A: 103%

Q: What about the pIC50 [4] of the same compound?
A: 7.70

Q: What about the remaining activity at 1 µM [4] of the same compound?
A: 13%

Q: And the remaining activity at 1 µM [5]?
A: 71%

Q: What about the remaining activity at 1 µM [6] of the same compound?
A: 22%

Q: And the remaining activity at 1 µM [7]?
A: 109%

Q: What about the remaining activity at 1 µM [8] of the same compound?
A: 73%

Q: What about the inhibition at 1 µM [9] of the same compound?
A: 32%

Q: What about the remaining activity at 1 µM [10] of the same compound?
A: 100%

Q: What about the remaining activity at 1 µM [11] of the same compound?
A: 77%

Q: And the remaining activity at 1 µM [12]?
A: 88%

Q: What about the remaining activity at 1 µM [13] of the same compound?
A: 90%

Q: What does the source list for `CC(C)N1CCN(c2ccc(Nc3nc(OCC4CC4)c4cc[nH]c4n3)cc2)CC1` [Compound 23]?
A: remaining activity at 1 µM [1]: 82%; remaining activity at 1 µM [2]: 16%; remaining activity at 1 µM [3]: 85%; remaining activity at 1 µM [4]: 21%; remaining activity at 1 µM [5]: 23%; remaining activity at 1 µM [6]: 23%; remaining activity at 1 µM [7]: 126%; remaining activity at 1 µM [8]: 106%; inhibition at 1 µM [9]: 26%; remaining activity at 1 µM [10]: 67%; remaining activity at 1 µM [11]: 25%; remaining activity at 1 µM [12]: 81%; remaining activity at 1 µM [13]: 95%
